Earlier results on two molecules are cited in patent US5763457A, “Method for treating anxiety” (Eli Lilly and Company, priority 1996, dated 1998).

One data set has as its system M1 -sites. The conditions noted are these: cited from earlier work.
The test system of a further data set is M2 -sites. The conditions noted are these: cited from earlier work.
The test system of the next data set is dopamine receptors. The conditions noted are these: literature; cited from earlier work.
The test system of the next data set is 5-HT1A receptor. The conditions noted are these: literature; cited from earlier work.

As to `CN1CCN(CC(=O)N2c3ccccc3C(=O)Nc3cccnc32)CC1` [pirenzepine, pirenzepine, [N-methyl-^3 H]], the selectivity entry with M1 -sites was “selective for M1 -sites”. For the same molecule, in the data set with M2 -sites, the “interaction with M2 -sites” value is “also interact with M2 -sites”.
As for `O=C1CC2(CCCC2)CC(=O)N1CCCCN1CCN(c2ncccn2)CC1` [Buspirone], the receptor interaction result in the data set on dopamine receptors was “interacts with reasonable potency only at the 5-HT1A and dopamine receptors”; in the data set with 5-HT1A receptor it was “interacts with reasonable potency only at the 5-HT1A and dopamine receptors”.
